Columns and labels:
Assay type in all cases: in vivo
[1] = test system: Digitaria ciliaris; test: Test Example 3: herbicidal effect test by soil application in upland field; details: 1 day after sowing, 120 g per 10 ares, 14 days after application
Description: (§1) Herbicidal Effect Test by Soil Application in Upland Field
(§2) Pots with an area of 36 cm^2 were filled with upland soil (alluvial loam), twenty seeds each of weeds of Digitaria ciliaris, Echinochloa crus-galli, Chenopodium album, and Amaranthus viridis were uniformly mixed with the top 1 cm layer of soil and the surface was lightly pressed down. One day after sowing, an emulsifiable concentrate prepared according to Formulation Example 5 using the compound shown below was diluted with water, and the diluted solution was sprayed onto the soil surface at a rate of 100 liters per 10 ares. The amount of the active ingredient to be applied was equivalent to 120 g per 10 ares. Fourteen days after chemical application, the herbicidal effect was evaluated according to the same criteria as in Test Example 1.

[2] = test system: Echinochloa crus-galli; test: as above; details: 1 day after sowing, 120 g per 10 ares, 14 days after application
Description: as §1, §2

[3] = test system: Scirpus juncoides; test: Test Example 2: herbicidal effect test by application during growth period of paddy rice; details: 7 days after sowing, 120 g per 10 ares, 14 days after application
Description: (§3) Herbicidal Effect Test by Application During Growth Period of Paddy Rice
(§4) Wagner pots with an area of 1/10,000 […] were filled with paddy soil, followed by addition of water and incorporation of chemical fertilizer (N:P:K=16:16:16), after which puddling was performed. After that, seeds of Echinochloa crus-galli var. formosensis, broad-leaved weeds (Lindemia pyxidaria, and Monochoria vaginalis), and Scirpus juncoides were sown at a depth of 0 cm to 1 cm, 30 seeds each. Immediately after sowing, the pots were flooded and a water depth of approximately 3 cm was maintained. Subsequent management was conducted in a glass greenhouse. Seven days after sowing, an emulsifiable concentrate prepared according to Formulation Example 5 using the compound shown below was diluted with water, and a specified amount of the diluted solution was applied by dropper. The amount of the active ingredient to be applied was equivalent to 120 g per 10 ares. The test was conducted in duplicate for each chemical concentration group, and the herbicidal effect was evaluated 14 days after chemical application using the same criteria as in Test Example 1.

[4] = test system: Echinochloa crus-galli var. formosensis; test: as above; details: 7 days after sowing, 120 g per 10 ares, 14 days after application
Description: as §3, §4

[5] = test system: Monochoria vaginalis; test: as above; details: 7 days after sowing, 120 g per 10 ares, 14 days after application
Description: as §3, §4

[6] = test system: Echinochloa crus-galli var. formosensis; test: Test Example 5: herbicidal effect test by soil application in paddy rice; details: 7.5 g per 10 ares, 14 days after application
Description: (§5) Herbicidal Effect Test by Soil Application in Paddy Rice
as §4, with “Immediately thereafter,” for “Seven days after sowing,”, “7.5” for “120”, “ares.” for “ares. The test was conducted in duplicate for each chemical concentration group, and the herbicidal effect was evaluated 14 days after chemical application using the same criteria as in Test Example 1.”
(§6) The present test was conducted in duplicate for each chemical concentration group, and the herbicidal effect was evaluated 14 days after chemical application using the same criteria as in Test Example 1.

[7] = test system: Digitaria ciliaris; test: Test Example 4: herbicidal effect test by stem and leaf treatment in upland field; details: 7 days after sowing, 120 g per 10 ares, 14 days after application
Description: (§7) Herbicidal Effect Test by Stem and Leaf Treatment in Upland Field
as §2, with “Seven days” for “One day”

[8] = test system: Echinochloa crus-galli; test: as above; details: 7 days after sowing, 120 g per 10 ares, 14 days after application
Description: as §7
as §2, with “Seven days” for “One day”

[9] = test system: Digitaria ciliaris; test: Test Example 7: herbicidal effect test by soil application in upland field; details: 1 day after sowing, 7.5 g per 10 ares, 14 days after application
Description: as §1
as §2, with “7.5” for “120”

[10] = test system: Echinochloa crus-galli; test: as above; details: 1 day after sowing, 7.5 g per 10 ares, 14 days after application
Description: as §1
as §2, with “7.5” for “120”

[11] = test system: Echinochloa crus-galli var. formosensis; test: Test Example 6: herbicidal effect test by application during growth period of paddy rice; details: 7 days after sowing, 7.5 g per 10 ares, 14 days after application
Description: as §3
as §4, with “7.5” for “120”

[12] = test system: Digitaria ciliaris; test: Test Example 8: herbicidal effect test by stem and leaf treatment in upland field; details: 7 days after sowing, 7.5 g per 10 ares, 14 days after application; for inhibition at 75 g/ha: Digitaria ciliaris, read-out: weed inhibition rate
Description: as §7
as §2, with “Seven days” for “One day”, “7.5” for “120”

[13] = test system: Echinochloa crus-galli; test: as above; details: 7 days after sowing, 7.5 g per 10 ares, 14 days after application
Description: as §7
as §2, with “Seven days” for “One day”, “7.5” for “120”

[14] = test system: Scirpus juncoides; test: Test Example 1: herbicidal effect test by soil application in paddy rice; details: 120 g per 10 ares, 14 days after application
Description: as §5
as §4, with “(Lindernia pyxidaria” for “(Lindemia pyxidaria,”, “Immediately thereafter,” for “Seven days after sowing,”, “ares.” for “ares. The test was conducted in duplicate for each chemical concentration group, and the herbicidal effect was evaluated 14 days after chemical application using the same criteria as in Test Example 1.”
(§8) The present test was conducted in duplicate for each chemical concentration group, and the weed inhibition rate (%) was determined 14 days after chemical application using the following formula (Math. 1).

[15] = test system: Echinochloa crus-galli var. formosensis; test: as above; details: 120 g per 10 ares, 14 days after application
Description: as §5
as §4, with “(Lindernia pyxidaria” for “(Lindemia pyxidaria,”, “Immediately thereafter,” for “Seven days after sowing,”, “ares.” for “ares. The test was conducted in duplicate for each chemical concentration group, and the herbicidal effect was evaluated 14 days after chemical application using the same criteria as in Test Example 1.”
as §8

[16] = test system: Monochoria vaginalis; test: as above; details: 120 g per 10 ares, 14 days after application
Description: as §5
as §4, with “(Lindernia pyxidaria” for “(Lindemia pyxidaria,”, “Immediately thereafter,” for “Seven days after sowing,”, “ares.” for “ares. The test was conducted in duplicate for each chemical concentration group, and the herbicidal effect was evaluated 14 days after chemical application using the same criteria as in Test Example 1.”
as §8

[17] = test system: Scirpus juncoides; test: Test Example 5: herbicidal effect test by soil application in paddy rice; details: 7.5 g per 10 ares, 14 days after application
Description: as §5
as §4, with “Immediately thereafter,” for “Seven days after sowing,”, “7.5” for “120”, “ares.” for “ares. The test was conducted in duplicate for each chemical concentration group, and the herbicidal effect was evaluated 14 days after chemical application using the same criteria as in Test Example 1.”
as §6

[18] = test system: Monochoria vaginalis; test: as above; details: 7.5 g per 10 ares, 14 days after application
Description: as §5
as §4, with “Immediately thereafter,” for “Seven days after sowing,”, “7.5” for “120”, “ares.” for “ares. The test was conducted in duplicate for each chemical concentration group, and the herbicidal effect was evaluated 14 days after chemical application using the same criteria as in Test Example 1.”
as §6

[19] = test system: Monochoria vaginalis; test: Test Example 6: herbicidal effect test by application during growth period of paddy rice; details: 7 days after sowing, 7.5 g per 10 ares, 14 days after application
Description: as §3
as §4, with “7.5” for “120”

[20] = Echinochloa crus-galli, read-out: weed inhibition rate
[21] = Digitaria ciliaris, read-out: weed inhibition rate

CC(C)[C@]12C[C@@H](OCc3ccccc3F)[C@](C)(C[C@@H]1Cl)O2 [1-12]
≥ 80%: weed inhibition rate [1] | weed inhibition rate [2] | weed inhibition rate [3] | weed inhibition rate [4] | weed inhibition rate [5] | weed inhibition rate [6] | weed inhibition rate [7] | weed inhibition rate [8] | weed inhibition rate [9] | weed inhibition rate [10] | weed inhibition rate [11] | weed inhibition rate [12] | weed inhibition rate [13] | weed inhibition rate [14] | weed inhibition rate [15] | weed inhibition rate [16]

CC(C)C1C[C@]2(C)O[C@@]1(C(C)C)C[C@H]2OCc1ccccc1F (stereo partly drawn) [1-133, (1S,2R,4R)-2-[(2-fluorobenzyl)oxy]-4,5-isopropyl-1-methyl-7-oxabicyclo[2.2.1]heptane]
≥ 80%: weed inhibition rate [1] | weed inhibition rate [2] | weed inhibition rate [3] | weed inhibition rate [4] | weed inhibition rate [5] | weed inhibition rate [17] | weed inhibition rate [6] | weed inhibition rate [18] | weed inhibition rate [7] | weed inhibition rate [8] | weed inhibition rate [9] | weed inhibition rate [10] | weed inhibition rate [11] | weed inhibition rate [19] | weed inhibition rate [13] | weed inhibition rate [14] | weed inhibition rate [15] | weed inhibition rate [16]

CC(C)[C@]12C[C@@H](OCc3ccccc3C(F)(F)F)[C@](C)(C[C@@H]1Br)O2 [1-700, (1S,2R,4R,5S)-5-bromo-1-methyl-4-isopropyl-2-[[2-(trifluoromethyl)phenyl]methoxy]-7-oxabicyclo[2.2.1]heptane]
≥ 80%: inhibition at 75 g/ha [12]

CC(C)[C@]12C[C@@H](OCc3ccccn3)[C@](C)(C[C@@H]1I)O2 [1-785, 2-[[(1S,2R,4R,5S)-5-iodo-4-isopropyl-1-methyl-7-oxabicyclo[2.2.1]heptan-2-yl]oxymethyl]pyridine]
≥ 80%: inhibition at 1200 g/ha ([3]; Schoenoplectiella juncoides, read-out: weed inhibition rate) | inhibition at 1200 g/ha [4, 20] | inhibition at 75 g/ha ([6]; Echinochloa crus-galli, 336 h, read-out: weed inhibition rate) | inhibition at 1200 g/ha [7, 21] | inhibition at 1200 g/ha [8, 20] | inhibition at 75 g/ha [9, 21] | inhibition at 75 g/ha [10, 20] | inhibition at 75 g/ha [11, 20] | inhibition at 75 g/ha [12] | inhibition at 75 g/ha [13, 20]

CC(=O)O[C@@H]1C[C@]2(C)O[C@@]1(C(C)C)C[C@H]2OCc1ccccc1F [1-932, [(1R,2R,4S,5R)-5-[(2-fluorophenyl)methoxy]-4-methyl-1-isopropyl-7-oxabicyclo[2.2.1]heptan-2-yl]acetate]
≥ 80%: weed inhibition rate [4] | weed inhibition rate [6] | weed inhibition rate [11] | weed inhibition rate [15]

CC(C)[C@]12C[C@@H](OCc3ccccc3F)[C@](C)(C=C1OS(=O)(=O)C(F)(F)F)O2 [3-680]
≥ 80%: weed inhibition rate [1] | weed inhibition rate [2] | weed inhibition rate [3] | weed inhibition rate [4] | weed inhibition rate [6] | weed inhibition rate [7] | weed inhibition rate [8] | weed inhibition rate [9] | weed inhibition rate [10] | weed inhibition rate [11] | weed inhibition rate [12] | weed inhibition rate [13] | weed inhibition rate [14] | weed inhibition rate [15]

Source: US20260327240A1, “1,4-CINEOLE DERIVATIVE AND INTERMEDIATE THEREOF, HERBICIDE CONTAINING SAID DERIVATIVE AS ACTIVE INGREDIENT, METHOD FOR USING HERBICIDE, AND METHOD FOR PREPARING AGROCHEMICAL COMPOSITION” (HOKKO CHEMICAL INDUSTRY CO., LTD., priority 2023, published 2026)
